This note sets out measurements from patent US20060199241A1, “Electrochemically and optically monitoring cleaving enzyme activity” (priority 2005, published 2006).

This assay deals with APO-GDH. The assay is described as follows: Homogeneous optical and electrochemical assay with GDH and PQQ. The conditions noted are these: APO-GDH 1 μM, 2 mM CaCl2, 40 mM glucose, 50 μM PMS, redox indicator (DCIP, resazurin or thionine). It counts as biochemical. Here is the method:
Homogeneous Optical and Electrochemical Assay for DNA with GDH and PQQ (See FIG. 8) The PQQ solutions (variable concentrations) included APO-GDH (1 μM), 2 mM CaCl2, and 40 mM Glucose. 50 μM PMS and a redox indicator (0.1-0.2 mM DCIP, 0.025 mM resazurin, or 0.05 mM thionine) were also added. PQQ at 0.1 nM was detectable.

Structures are written as SMILES.

Regarding `O=C(O)c1cc(C(=O)O)c2c(n1)C(=O)C(=O)c1cc(C(=O)O)[nH]c1-2` [PQQ, pyrroloquinoline quinone], the “PQQ concentration detectable (GDH enzyme activity)” value was 0.1 nM.
